# Publication PMC5870190, “A three-in-one-bullet for oesophageal cancer: replication fork collapse, spindle attachment failure and enhanced radiosensitivity generated by a ruthenium(II) metallo-intercalator” (Chemical Science, 2017)
# What was measured:
# OE21 cells = test: Cell-cycle analysis by flow cytometry; assay type: cell-based, human; conditions: OE21, 20 μM, 24 h
# Protocol: phototoxic contribution to bio-activity. Doxorubicin (Sigma) was prepared in doubly-distilled water (10 mg/mL, 17.4 mM).
# [Ru(phen)2(dppz)]2+ (2 mM) was prepared in doubly-distilled water.
# Sub-cellular fractionation. OE21 or OE33 cells were treated in 12 well plates, washed with cold PBS (2x2 mls) and nuclear and cytosol fractions obtained using the Nuclei EZ Lysis kit (Sigma). Briefly, cells were washed with acidified PBS (pH 2.5) to remove the membrane-bound fraction and 0.4 ml EZ lysis buffer was added. Cells were detached by scraping, collected into eppendorfs, vortexed briefly and left for 5 minutes on ice. Samples were centrifuged (500g, 5 mins) and the supernatant (cytosol fraction) aspirated. The pellet (nuclear fraction) was re-suspended in 200 µl RIPA buffer. […] Ruthenium content was determined by ICP-MS analysis as described in a recent […]
# DNA fibre assay. […] CldU- and IdU-labelled tracts were visualised using a Leica DMRB microscope with a DFC360FX camera and tract length measured by ImageJ software. […]
# Western blotting. […] Protein content was determined by BCA assay. […]
# AnnexinV staining. […] This was incubated for 15 mins at room temperature, 400 µl binding buffer added and analysed by flow cytometry (FL1 and FL3 channels for FITC and PI respectively). […]
# [1] = cited from earlier work
# [2] = test system: hSAEC1-KT normal human small airway epithelial cells; test: MTT assay, hSAEC1-KT cells; assay type: cell-based
# Protocol: MTT assay. OE21, FLO-1 or hSAEC1-KT cells were seeded in 96 well plates at 20,000 cells/well (for 24 h treatment) or 10,000 cells/well (for 72 h treatment) and allowed to adhere for 24 h before treatment. OE33 cells were seeded in 48 well plates at 40,000 cells/well (24 h treatment) or 20,000 cells/well (72 h treatment). Cancer cell lines were treated with chemicals dissolved in RPMI media for consistency. After incubation, 0.5 mg/ml MTT (thiazolyl blue tetrazolium bromide) dissolved in serum-free medium was added for 60 minutes and the formazan product eluted using acidified isopropanol.
# The absorbance at 540 nm was quantified by plate reader (reference wavelength 650 nm). The metabolic activity of the cell population was determined as a percentage of a negative (solvent) control. […]
# For the determination of mutation induction, from the untreated and each treated condition, 2x10^5 cells were plated in 10 x 100 mm dishes in selective media (regular media
substance,measurement,setting,value
[Ru(phen)2(tpphz)]^2+ [Ru1],increase in G2/M phase cells compared to control,OE21 cells,two-fold
same,log P,[1],–1.24
same,IC50,[2]; 24 h constant exposure,78.5 ± 1.3 µM
same,IC50,[2]; 72 h constant exposure,22 ± 2 µM
